We go through three molecules from patent US20230279072A1, “REGULATORY T CELL EPITOPES” (EpiVax Inc., priority 2020, published 2023).

The subject of test [1] is CD4+ T cells in PBMCs from healthy donors. The test can be described thus: Tetanus Toxoid Bystander Suppression Assay (TTBSA). It is filed as cell-based, human.
For test [2], the system named is HLA-DRB1*0101, *0301, *0401, *0701, *1101, *1301 and *1501 alleles. The experiment in a line: In vitro HLA DRB1 binding assay, panel of seven alleles. Also noted: species or system human. The method, then: The six FV peptides were tested for in vitro binding to HLA-DRB1*0101, *0301, *0401, *0701, *1101, *1301 and *1501 alleles.
Test [3] relates to CD4+ effector memory T cells. The test can be described thus: Suppression of Tetanus Toxoid stimulated CD4+ effector T cells in PBMC. It is filed as cell-based, human. On the procedure:
Previously harvested and frozen PBMC were thawed and suspended in conditioned chRPMI (3.3×10^6 cells/mL) by conventional means. Cells were stained with CFSE (Cat #: 65-0850-84, Affymetrix, Santa Clara, Calif.) and plated at 300,000 cells per well. Plates were incubated overnight (37° C. in 5% CO2). […] Previous titration experiments performed at EpiVax (EpiVax, Providence, R.I.) have established that stimulation with 0.5 μg/ml Tetanus Toxoid (TT) (Astarte Biologics, Bothell, Wash.) elicits a measurable CD4+ effector memory T cells response in PBMC drawn from healthy control donors (Rhode Island Blood Center, Providence, R.I.). Tetanus Toxoid stock (100 μg/mL) (Astarte Biologics, Bothell, Wash.) was diluted in conditioned chRPMI yielding a working concentration of 1 ug/mL. […] All plates were then incubated for six additional days. On assay day five, 100 μL of supernatant was removed from each well and replaced with freshly conditioned chRPMI.
On assay day seven, cells were removed from incubation. Cells were labeled for live/dead discrimination, for surface markers CD127, CCR7, CD4, CD45RA, and CD25 and for intracellular FoxP3. Stained cells were further prepared for FACS analysis by conventional means. Cells were first gated to eliminate aggregates and dead cells. Live cells were gated for CD4 T cells and all subsequent analysis was done on this population. The activated Teffector population was identified as the CD4+/CD25-high/FoxP3-intermediate (CD4+/CD25^1/FoxP3int) (FIG. 8A).
Proliferation of CD4+/CD25-high (CD4^+/CD25^hi) T cells was estimated from the dilution of the CFSE stain (Cat #: 65-0850-84, Affymetrix, Santa Clara, Calif.) and % proliferation determined by the CFSE-low (CFSEL^lo) population (FIG. 8B).

Test [4] has as its system CD4+CD25+FoxP3+ regulatory T cells. It is filed as cell-based, human.
Test [5] concerns the target HLA DRB1*0401 (Homo sapiens, UniProt P01903+P01911, A100K/A169T/F76Y/I96L/K127E/L162R/M171V/N62H/P40V/Q125Y/R42H/S133A/S149N/S66Y/V115G/V209L/W38E). The experiment in a line: HLA DRB1 (IC50) | *0401.
In test [6] the target is HLA DRB1*1101 (Homo sapiens, UniProt P01903+P01911, A100R/A169T/A87E/I96F/K41T/L162R/M171V/P40S/Q125H/Q178H/Q39Y/Q99D/R42S/S66Y/T262R/V115G/W38E). The experiment in a line: HLA DRB1 (IC50) | *1101.
Test [7] concerns the target HLA DRB1*0701 (Homo sapiens, UniProt P01903+P01911, A100R/A102G/A103Q/D57E/D86V/E43K/F76Y/K127E/L162R/M171V/P40G/Q125H/Q99D/R33Q/R42Y/R54Q/S133A/S66F/T210M/V115G/Y107V/Y59L/Y89S). The test can be described thus: HLA DRB1 (IC50) | *0701.
For test [8], the system named is human DR molecules. The conditions noted are these: cited from earlier work.
In test [9] the test system is PBMCs from lupus patients. To be noted: cited from earlier work.

Entries after “also recorded” stand apart in the source; their conditions may differ. A value given as a limit tells only on which side of the number the result lay.

HLA DRB1*1101, sequence (P01903 26-254 limits assumed, other chains not shown): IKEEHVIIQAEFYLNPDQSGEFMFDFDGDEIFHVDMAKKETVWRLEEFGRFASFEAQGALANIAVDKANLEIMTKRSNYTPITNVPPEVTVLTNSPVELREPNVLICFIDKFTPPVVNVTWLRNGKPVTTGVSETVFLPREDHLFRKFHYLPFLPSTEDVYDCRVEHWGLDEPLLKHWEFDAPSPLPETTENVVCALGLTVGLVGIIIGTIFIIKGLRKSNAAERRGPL

On to `CC[C@H](C)[C@H](NC(=O)[C@H](CO)NC(=O)[C@H](Cc1ccc(O)cc1)NC(=O)[C@@H]1CCCN1C(=O)[C@H](CCCNC(=N)N)NC(=O)[C@H](CO)NC(=O)[C@H](C)NC(=O)[C@H](CCSC)NC(=O)[C@H](CC(N)=O)NC(=O)[C@H](CCCCN)NC(=O)[C@H](Cc1ccccc1)NC(=O)[C@@H](NC(=O)[C@@H](NC(=O)[C@H](CCCCN)NC(C)=O)[C@@H](C)CC)C(C)C)C(=O)N[C@@H](Cc1ccc(O)cc1)C(N)=O` [SEQ ID NO: 3], for which the “inhibition of the CD4+ T memory response / T effector proliferation in the TTBSA” value in [1] is “did not inhibit”. Besides, the “binding affinity to HLA DR alleles (in words)” value in test [2] (across the alleles tested) is “strong affinity”. Moreover, the “breadth of binding to HLA DRB1 alleles” value in test [2] (seven alleles, listed as FV432) is “binding to nearly all of the HLA DRB1 alleles tested; also recorded: bind to multiple HLA DRB1 alleles”. Moreover, in test [3], the “activated (CD25 high) proliferating (CFSE low) CD4 T cells stimulated by Tetanus Toxoid” value is “no significant inhibitory effect” and the “activated effector CD4+ T cells (CD4+/CD25-high/FoxP3-intermediate) reacting to Tetanus Toxoid” value was “no appreciable effect”. The “proliferation of CD4− cells” value in test [3] (FIG. 11) was “little inhibitory effect”. The “proliferation of total CD4+ T cells (CFSE low)” value in [3] (donor 114, dose-dependent) is given as “little to no effect”. Besides, the “relative proportion of highly proliferative regulatory T cells (CFSE low FoxP3+) among CD25+ Granzyme B+ CD4+ T cells” value in test [4] was “no significant effect”.
What is called IC50 is the concentration that inhibits the measured activity by half. Higher therefore signals a need for much substance. Turning to `CC[C@H](C)[C@H](NC(=O)[C@@H](NC(=O)[C@H](CC(C)C)NC(=O)[C@@H](NC(=O)[C@H](Cc1ccccc1)NC(=O)[C@H](CC(=O)O)NC(=O)[C@@H](NC(=O)CN)[C@@H](C)O)[C@@H](C)O)[C@@H](C)O)C(=O)N[C@@H](CO)C(=O)N[C@@H](CO)C(=O)N[C@@H](CC(C)C)C(=O)N[C@@H](CCC(N)=O)C(=O)N1CCC[C@H]1C(=O)N[C@@H](CCC(=O)O)C(=O)N[C@@H](CC(=O)O)C(=O)O` [SEQ ID NO: 117 | Tregitope 084, GTDFTLTISSLQPED], the IC50 in test [5] is < 1 µM; in test [6] it was 100 µM; in test [7] it was < 1 µM.
On to “RIHMVYSKRSGKPRGYAFIEY (listed as Homo sapiens) [peptide 131-151, residues 131-151 of the spliceosome protein]”, for which, in test [8], the “binding to human DR molecules” value was “binds to a large panel of human DR molecules”. Besides, in [9], the “randomly selected lupus patients whose PBMCs contain T cells that proliferate in response to the peptide” value is 40%.
